Measured values published in patent US10865194B2, “Therapeutically active bicyclic-sulphonamides and pharmaceutical compositions” (FONDAZIONE ISTITUTO ITALIANO DI TECNOLOGIA, priority 2017, dated 2020).

Molecular target: T1, human NAAA (Homo sapiens, UniProt Q02083)
T1 construct: expressed in transfected cells; host or cells: HEK-293 (stably transfected, G418 selection); enzyme-enriched lysate
T1 sequence (Q02083 126-359 limits assumed): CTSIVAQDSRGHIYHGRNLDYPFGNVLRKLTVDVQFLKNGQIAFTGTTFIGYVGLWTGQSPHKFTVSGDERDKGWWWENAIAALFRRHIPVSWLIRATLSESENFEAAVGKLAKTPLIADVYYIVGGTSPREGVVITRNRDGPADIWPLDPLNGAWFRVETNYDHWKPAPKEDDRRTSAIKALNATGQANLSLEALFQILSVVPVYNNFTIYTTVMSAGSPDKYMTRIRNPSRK
T1 sequence (Q02083 29-125 limits assumed): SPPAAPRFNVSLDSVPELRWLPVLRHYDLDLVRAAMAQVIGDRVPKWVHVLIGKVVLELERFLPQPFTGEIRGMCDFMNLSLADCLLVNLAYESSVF
Experiment: In vitro human NAAA fluorogenic assay
Type: biochemical
Conditions: enzyme-enriched lysate of HEK-293 cells stably transfected with human NAAA; read-out: Activity h-NAAA Fluorogenic assay
Description: Human recombinant proteins were obtained from HEK-293 stable overexpressing NAAA cell lines. Cells were grown in Dulbecco's modified Eagle medium (DMEM) containing 10% FBS, 1% penicillin/streptomycin, 1% glutamine and 500 μg/mL G418. To obtain membrane preparation cells were scraped off with cold phosphate-buffered saline (PBS) and collected by centrifugation (300×g, 7 min, 4° C.). Cell pellet were stored at −80° C. until protein preparation.
In Vitro Human NAAA Assay
Preparation of Enzyme-Enriched Lysate (h-NAAA).
HEK-293 cells stably transfected with the human NAAA coding sequences were used as enzyme source. Cell pellets were suspended in 20 mM Tris HCl (pH 7.4) with 0.32 M sucrose, sonicated and centrifuged at 800×g for 30 min at 4° C. Supernatants were then ultracentrifuged at 12,000×g for 30 min at 4° C. Pellets were re-suspended in PBS buffer (pH 7.4) and subjected to three freeze-thaw cycles at −80° C. The suspension was finally ultracentrifuged at 105,000×g for 1 h at 4° C., supematants were collected, protein concentration was measured and samples aliquoted and stored at −80° C. until use.
The results are summarized in Table 3 as follows, wherein +: IC50>2 μM; ++: 1.0 μM<IC50<2 μM; +++: IC50<1 μM: […]

SMILES	IC50 [nM]
Cc1n[nH]c(C)c1S(=O)(=O)N1C2CCC1CC(Oc1ccc(-c3ccccc3)cc1)C2 [Example 06, (1R,3r,5S)-3-(4-phenylphenoxy)-8-[(3,5-dimethyl-1H-pyrazol-4-yl)sulfonyl]-8-azabicyclo[3.2.1]octane]	1000 to 2000
CCCCc1ccc(OC2CC3CCC(C2)N3S(=O)(=O)c2c(C)nn(C)c2C)cc1 [Example 14, (1R,3r,5S)-3-(4-Butylphenoxy)-8-(1,3,5-trimethylpyrazol-4-yl)sulfonyl-8-azabicyclo[3.2.1]octane]	< 1000
CCCCc1ccc(OC2CC3CCC(C2)N3S(=O)(=O)c2cc(C)sc2C)cc1 [Example 16, (1R,3r,5S)-3-(4-Butylphenoxy)-8-[(2,5-dimethyl-3-thienyl)sulfonyl]-8-azabicyclo[3.2.1]octane]	> 2000
Cc1n[nH]c(C)c1S(=O)(=O)N1C2CCC1CC(Oc1ccc(C(C)C)cc1)C2 [Example 18, (1R,3r,5S)-3-(4-Isopropylphenoxy)-8-[(3,5-dimethyl-1H-pyrazol-4-yl)sulfonyl]-8-azabicyclo[3.2.1]octane]	< 1000
CCCCc1ccc(OC2CC3CCC(C2)N3S(=O)(=O)c2c(C(C)C)n[nH]c2C)cc1 [Example 20, (1R,3r,5S)-3-(4-Butylphenoxy)-8-[(3-isopropyl-5-methyl-1H-pyrazol-4-yl)sulfonyl]-8-azabicyclo[3.2.1]octane]	< 1000
Cc1ccc(OC2CC3CCC(C2)N3S(=O)(=O)c2c(C)n[nH]c2C)c(F)c1 [Example 21, (1R,3r,5S)-3-(2-Fluoro-4-methylphenoxy)-8-[(3,5-dimethyl-1H-pyrazol-4-yl)sulfonyl]-8-azabicyclo[3.2.1]octane]	< 1000
Cc1n[nH]c(C)c1S(=O)(=O)N1C2CCC1CC(Oc1nc3ccccc3o1)C2 [Example 23, (1R,3r,5S)-8-[(3,5-Dimethyl-1H-pyrazol-4-yl)sulfonyl]-3-(2-benzoxazoloxy)-8-azabicyclo[3.2.1]octane]	< 1000
COc1ccc(O[C@H]2C[C@H]3CC[C@@H](C2)N3S(=O)(=O)c2c(C)n[nH]c2C)cc1 [Example 24, (1R,3r,5S)-3-(4-Methoxyphenoxy)-8-[(3,5-dimethyl-1H-pyrazol-4-yl)sulfonyl]-8-azabicyclo[3.2.1]octane]	< 1000
Cc1ccc(OC2CC3CCC(C2)N3S(=O)(=O)c2c(C)n[nH]c2C)nc1 [Example 27, (1R,3r,5S)-8-[(3,5-Dimethyl-1H-pyrazol-4-yl)sulfonyl]-3-[(5-methyl-2-pyridil)oxy]-8-azabicyclo[3.2.1]octane]	< 1000
Cc1n[nH]c(C)c1S(=O)(=O)N1C2CCC1CC(Oc1nc3c(C)cccc3o1)C2 [Example 28, (1R,3r,5S)-8-[(3,5-Dimethyl-1H-pyrazol-4-yl)sulfonyl]-3-(2-(4-methyl)-benzoxazoloxy)-8-azabicyclo[3.2.1]octane]	> 2000
Cc1n[nH]c(C)c1S(=O)(=O)N1C2CCC1CC(Oc1ccc(C=O)cc1)C2 [Example 30, (1R,3r,5S)-3-(4-Formyl-phenoxy)-8-[(3,5-dimethyl-1H-pyrazol-4-yl)sulfonyl]-8-azabicyclo[3.2.1]octane]	< 1000
Cc1n[nH]c(C)c1S(=O)(=O)N1C2CCC1CC(Oc1ccc(CO)cc1)C2 [Example 31, (1R,3r,5S)-3-(4-Hydroxymethyl-phenoxy)-8-[(3,5-dimethyl-1H-pyrazol-4-yl)sulfonyl]-8-azabicyclo[3.2.1]octane]	< 1000
Cc1n[nH]c(C)c1S(=O)(=O)N1C2CCC1CC(Oc1cnc3ccccc3n1)C2 [Example 34, (1R,3r,5S)-8-[(3,5-Dimethyl-1H-pyrazol-4-yl)sulfonyl]-3-(2-quinoxalyloxy)-8-azabicyclo[3.2.1]octane]	> 2000
Cc1cnc(OC2CC3CCC(C2)N3S(=O)(=O)c2c(C)n[nH]c2C)cn1 [Example 36, (1R,3r,5S)-8-[(3,5-Dimethyl-1H-pyrazol-4-yl)sulfonyl]-3-(5-methylpyrazin-2-yl)oxy-8-azabicyclo[3.2.1]octane]	< 1000

Other lines, results leading:

IC50 [nM]	SMILES
< 1000	Cc1n[nH]c(C)c1S(=O)(=O)N1C2CCC1CC(Oc1ccccc1)C2 [Example 01, (1R,3s,5S)-8-[(3,5-Dimethyl-1H-pyrazol-4-yl)sulfonyl]-3-phenoxy-8-azabicyclo[3.2.1]octane]
< 1000	Cc1n[nH]c(C)c1S(=O)(=O)N1C2CCC1CC(Oc1ccccc1)C2 [Example 02, (1R,3r,5S)-8-[(3,5-Dimethyl-1H-pyrazol-4-yl)sulfonyl]-3-phenoxy-8-azabicyclo[3.2.1]octane]
< 1000	Cc1cccc(OC2CC3CCC(C2)N3S(=O)(=O)c2c(C)n[nH]c2C)c1 [Example 04, (1R,3r,5S)-3-(3-Methylphenoxy)-8-[(3,5-dimethyl-1H-pyrazol-4-yl)sulfonyl]-8-azabicyclo[3.2.1]octane]
> 2000	Cc1cccc(OC2CC3CCC(C2)N3S(=O)(=O)c2c(C)n[nH]c2C)c1 [Example 05, (1R,3s,5S)-3-(3-Methylphenoxy)-8-[(3,5-dimethyl-1H-pyrazol-4-yl)sulfonyl]-8-azabicyclo[3.2.1]octane]
< 1000	Cc1ccc(OC2CC3CCC(C2)N3S(=O)(=O)c2c(C)n[nH]c2C)cc1 [Example 07, (1R,3r,5S)-3-(4-methylphenoxy)-8-[(3,5-dimethyl-1H-pyrazol-4-yl)sulfonyl]-8-azabicyclo[3.2.1]octane]
> 2000	Cc1ccc(OC2CC3CCC(C2)N3S(=O)(=O)c2c(C)n[nH]c2C)cc1 [Example 10, (1R,3s,5S)-3-(4-methylphenoxy)-8-[(3,5-dimethyl-1H-pyrazol-4-yl)sulfonyl]-8-azabicyclo[3.2.1]octane]
> 2000	Cc1ccccc1OC1CC2CCC(C1)N2S(=O)(=O)c1c(C)n[nH]c1C [Example 11, (1R,3s,5S)-3-(2-methylphenoxy)-8-[(3,5-dimethyl-1H-pyrazol-4-yl)sulfonyl]-8-azabicyclo[3.2.1]octane]
< 1000	Cc1ccccc1OC1CC2CCC(C1)N2S(=O)(=O)c1c(C)n[nH]c1C [Example 12, (1R,3r,5S)-3-(2-methylphenoxy)-8-[(3,5-dimethyl-1H-pyrazol-4-yl)sulfonyl]-8-azabicyclo[3.2.1]octane]
< 1000	Cc1n[nH]c(C)c1S(=O)(=O)N1C2CCC1CC(Oc1cnccn1)C2 [Example 13, (1R,3r,5S)-8-[(3,5-Dimethyl-1H-pyrazol-4-yl)sulfonyl]-3-pyrazin-2-yloxy-8-azabicyclo[3.2.1]octane]
< 1000	CCc1ccc(OC2CC3CCC(C2)N3S(=O)(=O)c2c(C)n[nH]c2C)cc1 [Example 17, (1R,3r,5S)-3-(4-Ethylphenoxy)-8-[(3,5-dimethyl-1H-pyrazol-4-yl)sulfonyl]-8-azabicyclo[3.2.1]octane]
> 2000	Cc1n[nH]c(C)c1S(=O)(=O)N1C2CCC1CC(Oc1ccc3ccccc3n1)C2 [Example 22, (1R,3r,5S)-8-[(3,5-Dimethyl-1H-pyrazol-4-yl)sulfonyl]-3-(2-quinolyloxy)-8-azabicyclo[3.2.1]octane]
< 1000	Cc1n[nH]c(C)c1S(=O)(=O)N1C2CCC1CC(Oc1ccccn1)C2 [Example 25, (1R,3r,5S)-8-[(3,5-Dimethyl-1H-pyrazol-4-yl)sulfonyl]-3-(2-pyridiloxy)-8-azabicyclo[3.2.1]octane]
< 1000	CCCOc1ccc(OC2CC3CCC(C2)N3S(=O)(=O)c2c(C)n[nH]c2C)cc1 [Example 26, (1R,3r,5S)-3-(4-Propoxyphenoxy)-8-[(3,5-dimethyl-1H-pyrazol-4-yl)sulfonyl]-8-azabicyclo[3.2.1]octane]
< 1000	Cc1n[nH]c(C)c1S(=O)(=O)N1C2CCC1CC(Oc1ccc(C(F)(F)F)cc1)C2 [Example 29, (1R,3r,5S)-3-(4-Trifluoromethyl-phenoxy)-8-[(3,5-dimethyl-1H-pyrazol-4-yl)sulfonyl]-8-azabicyclo[3.2.1]octane]
> 2000	CCN(CC)Cc1ccc(OC2CC3CCC(C2)N3S(=O)(=O)c2c(C)n[nH]c2C)cc1 [Example 32, (1R,3r,5S)-3-[4-Diethylaminomethyl-phenoxy]-8-[(3,5-dimethyl-1H-pyrazol-4-yl)sulfonyl]-8-azabicyclo[3.2.1]octane]
< 1000	Cc1n[nH]c(C)c1S(=O)(=O)N1C2CCC1CC(Oc1ccc(CCC(C)C)cc1)C2 [Example 33, (1R,3r,5S)-3-[4-Isopentyl-phenoxy]-8-[(3,5-dimethyl-1H-pyrazol-4-yl)sulfonyl]-8-azabicyclo[3.2.1]octane]
< 1000	CCOCc1ccc(OC2CC3CCC(C2)N3S(=O)(=O)c2c(C)n[nH]c2C)cc1 [Example 35, (1R,3r,5S)-3-(4-Ethoxymethyl-phenoxy)-8-[(3,5-dimethyl-1H-pyrazol-4-yl)sulfonyl]-8-azabicyclo[3.2.1]octane]
